Measured values: PMC12040169 (PLOS Biology, 2025)

Experiment: in vitro
Conditions: human, hela cells, % viability

SMILES | viability at 28.5 h, 10 µM [%]
Nc1ccc2c(-c3ccc(OC(F)(F)F)cc3)ccnc2n1 [CBK067649] | 89.1
Cc1ccc(S(=O)(=O)Nc2ccnc(Cl)n2)cc1 [CBK067661] | 90.7
COc1ccc([C@@]23CC[C@@H](N)C[C@@H]2N(C(C)(C)C)CC3)cc1OC [CBK067673] | 114
O=C(NCCC1SC(NC2CCCCCC2)=NC1=O)Nc1ccc(C(F)(F)F)cc1Cl (stereo not drawn) [CBK067682] | 89.9
O=C1N=C(NC2CCCCCC2)SC1CCNC(=O)N1CCOCC1 (stereo not drawn) [CBK067687] | 110
CSc1nnc(-c2sccc2OCc2ccc(Cl)cc2Cl)n1C [CBK067693] | 111
O=C(NCc1n[nH]c(=S)n1-c1cccc(C(F)(F)F)c1)c1cccs1 [CBK067697] | 91.2
Cn1c(SCC(=O)c2ccc(Cl)cc2)nnc1-c1cnccc1C(F)(F)F [CBK067698] | 110
CSc1nnc(-c2cccs2)n1C [CBK067702] | 87.9
O=c1c(-c2nnc(SCc3cccc(C(F)(F)F)c3)o2)cccn1Cc1ccccc1 [CBK067712] | 108
Cc1nc(-c2nnc(SCc3ccc(C(F)(F)F)cc3)o2)cs1 [CBK067715] | 95.1
Cc1cc(-c2nnc(SCc3ccc(Cl)cc3)n2C)no1 [CBK067720] | 112
Cc1sc(-c2c(F)cccc2F)nc1O [CBK067729] | 102
Cc1sc(-c2ccc(Cl)nc2)nc1OC(=O)c1cccs1 [CBK067733] | 94.5
CC(C)(C)c1ccc(-c2nc(O)c(CC(=O)O)s2)cc1 [CBK067734] | 99.6
CC(=O)Nc1onc(C)c1-c1nc(-c2ccc(Cl)cc2Cl)cs1 [CBK067735] | 101
Cc1sc(-c2cnccn2)nc1O [CBK067738] | 97.3
COc1ccc(/C=C2\SC(Nc3ccc(Cl)c(C(=O)O)c3)=NC2=O)cc1C [CBK067743] | 99.1
Cc1sc(-c2cccs2)nc1OC(=O)c1cccc(C(F)(F)F)c1 [CBK067748] | 96.1
O=C1N/C(=N/c2ccccc2Cl)S/C1=C/c1ccc(-c2ccccc2Cl)o1 [CBK067752] | 89.3
Cc1nn(-c2ccccc2)c(O)c1Cc1c(Cl)cccc1Cl [CBK067760] | 98.1
CC1=NN(c2ccc(Cl)c(Cl)c2)C(=O)C1 [CBK067761] | 100
O=C1CC(c2cccnc2)=NN1c1ccc(Cl)cc1Cl [CBK067764] | 97.7
COc1cccc(CCN2N=C(C)CC2=O)c1OC [CBK067766] | 100

SMILES | viability at 28.5 h, 10 µM [%]
Cc1cc(SCC2=NNC(=O)C2)c(Cl)cc1Cl [CBK067769] | 92.8
CC1=NN(c2ccccc2)C(=O)C1C(=O)c1ccc(Br)cc1 (stereo not drawn) [CBK067771] | 98.1
CN1N=C(c2ccccc2)CC1=O [CBK067774] | 96.4
Cc1nn(C)c(Cl)c1S(=O)(=O)Nc1cc(NC2CCNC2)c2occc2c1 (stereo not drawn) [CBK067807C] | 99.3
CCN(CC)C(=O)c1sc2ccccc2c1Cl [CBK067853] | 103
O=C1N=C(NC2CCCCCC2)SC1Cc1ccc(O)cc1 (stereo not drawn) [CBK067868] | 109
CCN1CCC[C@@H]1CNc1cc(NS(=O)(=O)c2cccs2)cc2ccoc12 [CBK067904C] | 83.3
O=C1N=C(NCC2CCCCC2)SC1CC(=O)N1CCCC(O)C1 (stereo not drawn) [CBK067919] | 109
CCN(CC)C(=O)CC1SC(NCC2CCCCC2)=NC1=O (stereo not drawn) [CBK067923] | 92.9
CC1CCCCN1CCCNc1cc(NS(=O)(=O)c2cn(C)cn2)cc2ccoc12 (stereo not drawn) [CBK067940C] | 94.5
O=C1N=C(NC2CCCCC2)SC1Cc1nc2ccccc2o1 (stereo not drawn) [CBK067970] | 96.4
O=S(=O)(c1ccc(Cl)cc1)N1CCN(c2ccccc2)CC1 [CBK067987] | 100
O=C(CSc1nnc(-c2ccccc2O)o1)c1ccc(Cl)cc1 [CBK068032] | 98.4
Cc1ccc(C)c2[nH]c(=O)c(CN(Cc3cccnc3)C(=O)NC3CCCCC3)cc12 [CBK068091] | 98.2
Cc1cccc(-c2nnn(CC(=O)O)n2)c1 [CBK068105] | 102
Cc1ccc(S(=O)(=O)N2CCN(C(=O)c3ccco3)CC2)cc1 [CBK068166] | 92.8
Cc1ccc2nc(SCC(=O)Nc3ccccc3Br)c(C#N)cc2c1 [CBK068169] | 94.4
COc1cccc(-c2nnn(CC(=O)O)n2)c1 [CBK068202] | 94.9
O=C(c1ccco1)N1CCN(C(=O)c2ccco2)CC1 [CBK068272] | 86.4
CCCCOc1ccc(-c2nnn(CC(=O)NCc3ccccc3)n2)cc1 [CBK068557] | 96.8
CCCCOc1ccc(-c2nnn(C(C)C(=O)OCC)n2)cc1 (stereo not drawn) [CBK068558] | 88.6
CCn1c(SCC(=O)O)nnc1-c1ccco1 [CBK068633] | 86.8
CCN(CC)CCN(Cc1cc2ccc(C)cc2[nH]c1=O)C(=O)Nc1ccc(Cl)cc1 [CBK068680] | 84.9
COc1ccc2cc(C#N)c(SCC(=O)Nc3ccc(F)cc3)nc2c1 [CBK068765] | 85.7

SMILES | viability at 28.5 h, 10 µM [%]
CC(=O)c1ccc(S(=O)(=O)N2CCCCC2C)cc1 (stereo not drawn) [CBK069211] | 90
c1ccc(CCn2nnnc2CN2CCN(c3ccccc3)CC2)cc1 [CBK069271] | 95.2
COc1ccc(-c2nnc(SCC(=O)c3ccccc3)o2)cc1 [CBK069390] | 100
CCOC(=O)c1ccc(S(=O)(=O)N2CCCCC2)cc1 [CBK069738] | 106
COc1ccc(Cl)cc1NC(=O)C1CCCN1S(=O)(=O)c1ccc(F)cc1 (stereo not drawn) [CBK069866] | 108
O=C(Cc1ccccc1)N1CCC(c2nc3ccccc3s2)CC1 [CBK070145] | 92.6
CC(C)C1OC(NCc2ccc(Cl)cc2)=NC1=O (stereo not drawn) [CBK070352] | 94.9
CC(C)C1OC(NC2CC(C)(C)NC(C)(C)C2)=NC1=O (stereo not drawn) [CBK070360T] | 97.1
COC(=O)c1ccc(S(=O)(=O)N2CCC(C)CC2)cc1 [CBK070414] | 98.1
O=C(CSc1nnc(-c2ccncc2)o1)c1ccccc1 [CBK070562] | 87.5
CCNC(=O)Nc1ncc(-c2ccccc2)c2cccnc12 [CBK070624] | 95.3
CCNC(=O)Nc1ncc(-c2ccc(C(C)(C)C)cc2)c2cccnc12 [CBK070632] | 98.6
CCNC(=O)Nc1ncc(-c2cc(OC)c(OC)c(OC)c2)c2cccnc12 [CBK070635] | 83.2
CCNC(=O)Nc1ncc(-c2ccc(Oc3ccccc3)cc2)c2cccnc12 [CBK070636] | 104
CCNC(=O)Nc1cc2cccnc2nc1-c1cc(F)cc(F)c1 [CBK070638] | 97
CCNC(=O)Nc1cc2cccnc2nc1-c1cccc(C(F)(F)F)c1 [CBK070645] | 94.1
CCNC(=O)Nc1ccc2ccc(-c3cccnc3)nc2n1 [CBK070652] | 85
CCNC(=O)Nc1ccc2ccc(-c3ccc(SC)cc3)nc2n1 [CBK070656] | 90.9
CCNC(=O)Nc1ccc2c(-c3ccc4c(c3)CCO4)ccnc2n1 [CBK070673] | 96.2
CCNC(=O)Nc1ccc2c(-c3cccc(C(F)(F)F)c3)ccnc2n1 [CBK070678] | 93.7
CCNC(=O)Nc1ncc(-c2ccc(OC(F)(F)F)cc2)c2cccnc12 [CBK070690] | 94
CCNC(=O)Nc1cc2cccnc2nc1-c1ccc2c(c1)OCCCO2 [CBK070695] | 97.1
CCNC(=O)Nc1ccc2ccc(-c3ccsc3)nc2n1 [CBK070699] | 73.5
CN1CCN(c2ccc3ccn(S(=O)(=O)c4ccc([N+](=O)[O-])cc4)c3n2)CC1 [CBK070757C] | 104

SMILES | viability at 28.5 h, 10 µM [%]
CN1CCN(CCC(=O)Nc2cccc(Cl)c2)CC1 [CBK070793C] | 108
O=C(CSCc1nc2ccccc2c(=O)n1-c1ccccc1Cl)Nc1ccccc1 [CBK070895] | 95.2
COc1cccc(NC(=O)CCS(=O)(=O)c2cccs2)c1 [CBK071069] | 100
Cc1c(Br)c(C(F)(F)F)nn1CC(=O)N1CCCC1 [CBK071473] | 92.9
CCc1ccc(CNC(=O)c2ccc3c(c2)NC(=O)C(N2CCOCC2)S3)cc1 (stereo not drawn) [CBK071737] | 93.2
CCCCNC(=O)c1ccc2c(c1)NC(=O)C(N1CCCC1)S2 (stereo not drawn) [CBK071762] | 98.4
COC(=O)Cn1cnc2sc(C(=O)Nc3ccccc3OC)c(C)c2c1=O [CBK071808] | 109
CCCn1cnc2sc(C(=O)Nc3ccc(C)cc3C)c(C)c2c1=O [CBK071815] | 84.6
COCCNC(=O)c1sc2ncn(CC(=O)Nc3ccccc3OC)c(=O)c2c1C [CBK071846] | 88.7
CCOCCn1cnc2sc(C(=O)Nc3cccc(Cl)c3)c(C)c2c1=O [CBK071854] | 91.8
Cc1cc2c(=O)n(CC(=O)NCc3ccco3)cnc2s1 [CBK071898] | 91.2
COCCCNC(=O)Cn1cnc2sc(C)cc2c1=O [CBK071899] | 102
CCOc1ccc(C(=O)Nc2nc(-c3ccc(F)cc3)cs2)cc1 [CBK072020] | 91
O=C(Nc1nc2ccccc2s1)c1cc([N+](=O)[O-])ccc1Cl [CBK072428] | 85.9
O=C(c1cccnc1)N1CCN(C(=O)c2ccco2)CC1 [CBK072684] | 94.3
Fc1cccc(Nc2nc(-c3ccncc3)nc3ccccc23)c1 [CBK072732] | 89.5
CCOc1ccc(Nc2ncnc3c2cnn3Cc2ccccc2)cc1 [CBK072752] | 97.8
Cc1cccc(Nc2ncnc3ccccc23)c1 [CBK072827] | 114
Cc1cc(C)c(OCC(=O)Nc2cc(-c3nc4ncccc4o3)ccc2C)c(Cl)c1 [CBK072887] | 92.7
Cc1cc(NC(=O)c2ccc3c(c2)C(=O)N(CC2CCCO2)C3=O)no1 (stereo not drawn) [CBK072998] | 90.2
Cc1cccc(C(=O)Nc2ccc3oc(-c4cccnc4)nc3c2)c1 [CBK073161] | 82.7
